Reference: ChEMBL document CHEMBL1201862, “PubChem BioAssay data set” (2004)
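1) Cells in 96-well plates. 2) Compound, 48 h, 5 concentrations. 3) Linear interpolation between surrounding doses. 4) Unreached endpoint = highest concentration. GI50 is the concentration that inhibits growth by half.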 The source made the active and inactive calls. Rule as the data show it: active = GI50 up to about 1.1 µM and inactive = higher.

Columns and labels:
Assay in all cases: NCI anticancer screen, dose series, 48 h
[1] = system: TK-10
[2] = system: SF-268
[3] = system: HCT-116
[4] = system: OVCAR-5
[5] = system: 786-0
[6] = system: CCRF-CEM
[7] = system: SF-295
[8] = system: U-251
[9] = system: COLO 205
[10] = system: HCT-15
[11] = system: OVCAR-8
[12] = system: NCI-H522
[13] = system: SR
[14] = system: SF-539
[15] = system: LOX IMVI
[16] = system: ACHN
[17] = system: HOP-62
[18] = system: SNB-75
[19] = system: A498

Row | SMILES | GI50 [1] | GI50 [2] | GI50 [3] | GI50 [4] | GI50 [5] | GI50 [6] | GI50 [7] | GI50 [8] | GI50 [9] | GI50 [10] [µM] | GI50 [11] | GI50 [12] | GI50 [13] | GI50 [14] | GI50 [15] | GI50 [16] | GI50 [17] | GI50 [18] | GI50 [19]
1 | Cc1nc2sccn2c1C(=O)NN | > 100 µM (inactive) | > 100 µM (inactive) | > 100 µM (inactive) | > 100 µM (inactive) | > 100 µM (inactive) | > 100 µM (inactive) | > 100 µM (inactive) | > 100 µM (inactive) | > 100 µM (inactive) | > 100 | > 100 µM (inactive) | > 100 µM (inactive) | > 100 µM (inactive) | > 100 µM (inactive) | > 100 µM (inactive) | > 100 µM (inactive) | > 100 µM (inactive) |  | 
2 | CC(C)O/C=C1\C(=O)C2(SCCS2)[C@H]2CCCC[C@@H]12 | 43 µM (inactive) | 39 µM (inactive) | 34.4 µM (inactive) |  | 48 µM (inactive) | 25.5 µM (inactive) |  | 40.5 µM (inactive) | 18.5 µM (inactive) | 33.9 | 36.6 µM (inactive) | 20.5 µM (inactive) | 48.9 µM (inactive) | 44.3 µM (inactive) |  | 39.3 µM (inactive) | 38 µM (inactive) | 28.8 µM (inactive) | 17.7 µM (inactive)
3 | CCN(CC)CCCC(C)Nc1cc(-c2ccccc2)nc2cc(OC)ccc12 (stereo not given) |  | 12.8 µM (inactive) | 2.84 µM (inactive) | 2.48 µM (inactive) |  | 1.3 µM (inactive) | 8.79 µM (inactive) | 4.22 µM (inactive) | 2.91 µM (inactive) |  |  | 6.44 µM (inactive) | 2.71 µM (inactive) | 3.05 µM (inactive) |  | 6.53 µM (inactive) | 5.25 µM (inactive) | 11.8 µM (inactive) | 5.61 µM (inactive)
4 | O=C(CN1C(=O)c2ccccc2C1=O)OC1C=CCCC1 (stereo not given) | > 100 µM (inactive) | > 100 µM (inactive) | > 100 µM (inactive) |  | > 100 µM (inactive) | > 100 µM (inactive) |  | > 100 µM (inactive) | > 100 µM (inactive) | > 100 | > 100 µM (inactive) | 72.8 µM (inactive) | > 100 µM (inactive) | > 100 µM (inactive) |  | > 100 µM (inactive) | > 100 µM (inactive) | > 100 µM (inactive) | > 100 µM (inactive)
5 | Cc1cc(N(CCC#N)S(=O)(=O)c2ccccc2)ccc1/C=N\c1cccc(C(=O)O)c1 | > 100 µM (inactive) | 60.1 µM (inactive) | > 100 µM (inactive) | > 100 µM (inactive) |  | > 100 µM (inactive) | > 100 µM (inactive) | > 100 µM (inactive) | > 100 µM (inactive) | > 100 | > 100 µM (inactive) | > 100 µM (inactive) |  | > 100 µM (inactive) |  | > 100 µM (inactive) | > 100 µM (inactive) | 35.6 µM (inactive) | 
6 | CCC(C)(C)n1c(C)nc2c1C(=O)c1ccccc1C2=O | 31.8 µM (inactive) | 29.6 µM (inactive) | 13.6 µM (inactive) |  | 39.5 µM (inactive) | 29.7 µM (inactive) | 38.9 µM (inactive) | 28.8 µM (inactive) | 17 µM (inactive) | 23.1 | 36.1 µM (inactive) | 28.4 µM (inactive) | 9.33 µM (inactive) | 26.5 µM (inactive) | 19.4 µM (inactive) | 32.9 µM (inactive) | 30.5 µM (inactive) | 27.2 µM (inactive) | 
7 | COc1ccc(NC(=O)CC/C(CC(=O)c2ccccc2Cl)=N\Nc2nnc(C)n2N)cc1 | > 100 µM (inactive) | > 100 µM (inactive) | > 100 µM (inactive) | > 100 µM (inactive) | > 100 µM (inactive) | > 100 µM (inactive) | > 100 µM (inactive) | > 100 µM (inactive) | > 100 µM (inactive) | > 100 | > 100 µM (inactive) |  | > 100 µM (inactive) | > 100 µM (inactive) | > 100 µM (inactive) | > 100 µM (inactive) |  |  | 
